Test results as given in article PMC12865225 (Clinical and Translational Science, 2026).

What was measured:
[1] = biological target: T1, OATP1B1 (Homo sapiens, UniProt Q9Y6L6); assay: OATP1B1 inhibition with fluorescent substrate 2′,7′-dichlorofluorescein in HEK293 cells; format: cell-based; conditions: 1 µM 2′,7′-dichlorofluorescein, 30 min preincubation
T1 construct: expressed in transfected cells; host or cells: HEK293 (recombinant baculovirus-mediated transduction)
T1 sequence (Q9Y6L6 1-691): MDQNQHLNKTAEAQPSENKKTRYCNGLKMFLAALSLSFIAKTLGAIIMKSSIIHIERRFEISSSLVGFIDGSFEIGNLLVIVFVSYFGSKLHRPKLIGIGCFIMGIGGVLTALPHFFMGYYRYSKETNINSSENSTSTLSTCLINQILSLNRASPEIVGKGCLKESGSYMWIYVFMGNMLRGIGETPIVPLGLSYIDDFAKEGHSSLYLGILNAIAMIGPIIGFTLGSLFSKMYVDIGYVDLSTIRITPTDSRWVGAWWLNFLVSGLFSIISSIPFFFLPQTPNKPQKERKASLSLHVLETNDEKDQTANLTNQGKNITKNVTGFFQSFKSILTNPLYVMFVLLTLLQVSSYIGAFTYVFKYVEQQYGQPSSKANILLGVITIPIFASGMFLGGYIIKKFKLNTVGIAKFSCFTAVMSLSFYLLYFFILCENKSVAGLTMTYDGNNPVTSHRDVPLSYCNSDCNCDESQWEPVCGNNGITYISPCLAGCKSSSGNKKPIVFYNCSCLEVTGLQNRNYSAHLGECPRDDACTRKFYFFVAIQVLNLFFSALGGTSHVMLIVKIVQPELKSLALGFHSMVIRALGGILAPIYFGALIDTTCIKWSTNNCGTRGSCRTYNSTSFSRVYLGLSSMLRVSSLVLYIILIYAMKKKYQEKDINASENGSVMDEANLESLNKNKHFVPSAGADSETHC
Experimental: (§1) 8- (2- [Fluoresceinyl]aminoethylthio)adenosine- 3', 5'- cyclic monophosphate (8-Fluo-cAMP) was acquired from Biolog Life Science Institute (Bremen, Germany), 4′,5′-dibromofluorescein was acquired from Sigma-Aldrich (St. Louis, MO, USA) and 2′,7′-dichlorofluorescein was acquired from Santa Cruz Biotechnology (Dallas, TX, USA).
(§2) Inhibition studies with fluorescent substrates in OATP transduced HEK293 cells The concentrations of fluorescent probe substrates were 1 µM 2′,7′-dichlorofluorescein for OATP1B1, 2.5 µM 8-Fluo-cAMP for OATP1B3 and 1 µM 4′,5′-dibromofluorescein for OATP2B1, and these concentrations were selected to be within or below of previously reported […]
(§3) reported linear ranges of transport for these substrate-transporter combinations.1,2,4 8-Fluo-cAMP was dissolved in ultrapure water, while dimethyl sulfoxide (DMSO) was used for all other compounds. […] For the quantification of fluorescent substrates, cells were lysed with 120 µl of lysis solution (1% Triton X-100, 5 mM EDTA, 150 mM sodium chloride and 150 mM TRIC-hydrochloride and adjusted to pH 8 with sodium hydroxide) for 30 min at 300 RPM shaking before transferring 80 µl of samples to a transparent 96-well plate containing 20 µl of 0.5 M sodium hydroxide. […] The plates were measured with a fluorescent plate reader (Varioskan LUX from ThermoFisher Scientific). […]

[2] = biological target: T2, OATP2B1 (Homo sapiens, UniProt O94956); assay: OATP2B1 inhibition with fluorescent substrate 4′,5′-dibromofluorescein in HEK293 cells; format: cell-based; conditions: 1 µM 4′,5′-dibromofluorescein, 5 min, 30 min preincubation
T2 construct: expressed in transfected cells; host or cells: HEK293 (recombinant baculovirus-mediated transduction)
T2 sequence (O94956 1-709): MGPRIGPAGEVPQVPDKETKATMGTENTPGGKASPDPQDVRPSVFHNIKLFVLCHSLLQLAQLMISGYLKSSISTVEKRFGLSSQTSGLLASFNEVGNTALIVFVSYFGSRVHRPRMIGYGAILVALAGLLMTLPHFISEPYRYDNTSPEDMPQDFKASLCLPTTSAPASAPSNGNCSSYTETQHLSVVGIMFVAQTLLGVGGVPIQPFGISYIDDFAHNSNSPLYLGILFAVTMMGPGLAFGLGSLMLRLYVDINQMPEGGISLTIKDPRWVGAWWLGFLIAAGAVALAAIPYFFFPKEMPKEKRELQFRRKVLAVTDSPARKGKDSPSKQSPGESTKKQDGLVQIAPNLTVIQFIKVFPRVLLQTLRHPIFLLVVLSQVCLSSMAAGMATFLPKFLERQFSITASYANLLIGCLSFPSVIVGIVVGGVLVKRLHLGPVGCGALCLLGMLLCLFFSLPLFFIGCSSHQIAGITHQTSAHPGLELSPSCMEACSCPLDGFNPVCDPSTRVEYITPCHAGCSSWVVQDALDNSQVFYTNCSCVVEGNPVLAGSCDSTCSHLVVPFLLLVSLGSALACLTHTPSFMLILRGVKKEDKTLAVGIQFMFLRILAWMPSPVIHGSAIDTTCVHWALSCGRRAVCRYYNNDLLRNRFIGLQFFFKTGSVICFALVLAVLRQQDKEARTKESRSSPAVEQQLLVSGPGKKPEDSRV
Experimental: as §1, §2, §3

SMILES	IC50 ([1]; 5 min)	IC50 [2]	IC50 at 5 min ([1]; human, HEK293 cells transduced to express OATP1B1, pH 7.4, probe 2′,7′-dichlorofluorescein 1 µM)
Cc1onc(-c2c(F)cccc2Cl)c1C(=O)N[C@@H]1C(=O)N2[C@@H]1SC(C)(C)[C@@H]2C(=O)O [Flucloxacillin]	9.28 µM	76.4 µM	–
Cc1onc(-c2c(Cl)cccc2Cl)c1C(=O)N[C@@H]1C(=O)N2[C@@H]1SC(C)(C)[C@@H]2C(=O)O [Dicloxacillin]	–	37.6 µM	3.59 µM
